A word on the Ki: it is the equilibrium dissociation constant of an inhibitor or competing ligand from its target. In general, Km refers to the substrate concentration at which the rate is half of its maximum.

Structures can show the parent of a compound that is named as a salt. Where two headings read alike, the source gives them in different places.

The values that follow come from patent EP4159213A1, “PHARMACEUTICAL COMPOSITIONS FOR USE IN PREVENTION AND/OR TREATMENT AND/OR CURE OF HEPATITIS B VIRUS” (Katholieke Universiteit Leuven, priority 2021, dated 2023).

Holding throughout (assay type): cell-based
For test [1], the target named is T1, human NTCP (Homo sapiens, UniProt Q14973).
T1 sequence (Q14973 1-349): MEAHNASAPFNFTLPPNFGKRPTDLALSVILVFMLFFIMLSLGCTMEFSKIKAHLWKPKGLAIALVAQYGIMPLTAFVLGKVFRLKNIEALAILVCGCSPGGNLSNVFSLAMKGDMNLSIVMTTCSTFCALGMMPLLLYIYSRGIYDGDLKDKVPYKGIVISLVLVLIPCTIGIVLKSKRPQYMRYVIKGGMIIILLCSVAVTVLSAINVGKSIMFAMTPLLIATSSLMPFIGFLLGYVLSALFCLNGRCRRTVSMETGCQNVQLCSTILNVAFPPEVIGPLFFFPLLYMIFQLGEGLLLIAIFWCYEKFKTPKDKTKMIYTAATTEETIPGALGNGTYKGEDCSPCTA
Nature of the test: Inhibition of tauro-nor-THCA-24-DBD uptake in NTCP-transfected CHO cells. Also noted: expressed in transfected cells; host or cells: CHO cells, geneticin selection, expression induced with sodium butyrate. Particulars: for Ki: read-out: Ki; for Uptake of tauro-nor-THCA-24-DBD (% of control): compound at equimolar concentration with 3 µM tauro-nor-THCA-24-DBD, triplicate. How it is done:
(§1) The cells were placed in an incubator at 37 °C and 5% CO2. The culture medium consisted of DMEM with 1 g·L^-1 glucose and 25 mM HEPES, supplemented with 10% FBS, 0.05 mg·mL^-1 L-proline, 100 IU·mL^-1 penicillin, 100 […], 2 mM glutamine, 0.11 mg·mL^-1 sodium pyruvate. To ensure selection of NTCP-transfected cells, 0.5 mg·mL^-1 geneticin was added to the medium of the transfected cells. Cells were seeded in black 96-well plates with transparent bottom at a density of 6000 cells·well^-1 and 4000 cells·well^-1 for wild-type and transfected cells, respectively. The medium was replaced every other day and 5 mM sodium butyrate was added to induce protein expression at least 36 h before the start of the experiments. Experiments were performed on day 4 or 5 after seeding when confluence was reached.
Furthermore, to analyse the uptake experiments in NTCP-transfected CHO cells, cells were rinsed twice with 200 µL-well^-1 uptake buffer (HBSS containing 10 mM HEPES, pH 7.4) at 37 °C and subsequently preincubated with 100 µL uptake buffer for 15 minutes. For inhibition experiments, compounds were added at double concentration during preincubation. Uptake was initiated by adding 100 µL double-concentrated tauro-nor-THCA-24-DBD solution in uptake buffer. Cells were incubated for 15 minutes. The reaction was quenched by aspirating the incubation mixture and washing four times with ice cold uptake buffer. The cells were lysed with 100 µL 0.5% Triton X-100 in PBS and placed on a plate shaker (300 rpm) at room temperature for 30 minutes. Uptake of tauro-nor-THCA-24-DBD was determined using fluorescence spectroscopy (excitation 440 nm, emission 580 nm) using a Tecan Infinite 200 plate reader (Tecan Benelux, Mechelen, Belgium). Protein content of each well was determined with the BCA Protein assay (Thermo Fisher Scientific, Waltham, MA) performed according to the manufacturer's protocol. Uptake kinetics of tauro-nor-THCA-24-DBD were determined by incubating eight different concentrations in the absence of any compound. […] All conditions were tested in triplicate.
Uptake of tauro-nor-THCA-24-DBD in presence of compounds was expressed to uptake of the control for each batch, i.e. when no compound was present.
For determination of the IC50, the uptake in presence of various concentrations of inhibitor was fitted to the sigmoid Emax model: E = Emax −(Emax−E0) × (([I])^n)/(([I])^n + IC50^n) [formula] with E the uptake of tauro-nor-THCA-24-DBD, E0 the uptake at maximal inhibition by the compound, Emax the uptake at minimal inhibition, IC50 the concentration of the inhibitor at half maximal inhibition, n the Hill coefficient and [I] the concentration of the inhibitor. All curves were fitted with nonlinear least squares regression using R version 3.5.1.
Assuming competitive inhibition, the Cheng-Prusoff equation was used to determine the Ki value: Ki = (IC50)/(1 + ([S])/(Km)) [formula] where Ki is the binding affinity of the inhibitor, IC50 the concentration of the inhibitor at half maximal inhibition, [S] the substrate concentration, and Km the Michaelis-Menten constant of the substrate.

In test [2] the target is T1, human NTCP. The test is described as above. Also on record: expressed in transfected cells; host or cells: CHO cells, geneticin-selected, expression induced with sodium butyrate. How it is done: The cells were placed in an incubator at 37 °C and 5% CO2. The culture medium consisted of DMEM with 1 g·L^-1 glucose and 25 mM HEPES, supplemented with 10% FBS, 0.05 mg·mL^-1 L-proline, 100 IU·mL^-1 penicillin, 100 […], 2 mM glutamine, 0.11 mg·mL^-1 sodium pyruvate. To ensure selection of NTCP-transfected cells, 0.5 mg·mL^-1 geneticin was added to the medium of the transfected cells. Cells were seeded in black 96-well plates with transparent bottom at a density of 6000 cells·well^-1 and 4000 cells·well^-1 for wild-type and transfected cells, respectively. […]
(§2) Furthermore, to analyse the uptake experiments in NTCP-transfected CHO cells, cells were rinsed twice with 200 µL-well^-1 uptake buffer (HBSS containing 10 mM HEPES, pH 7.4) at 37 °C and subsequently preincubated with 100 µL uptake buffer for 15 minutes. […] Uptake of tauro-nor-THCA-24-DBD was determined using fluorescence spectroscopy (excitation 440 nm, emission 580 nm) using a Tecan Infinite 200 plate reader (Tecan Benelux, Mechelen, Belgium). Protein content of each well was determined with the BCA Protein assay (Thermo Fisher Scientific, Waltham, MA) performed according to the manufacturer's protocol. Uptake kinetics of tauro-nor-THCA-24-DBD were determined by incubating eight different concentrations in the absence of any compound. […]

Test [3] concerns the target T1, human NTCP. Briefly: Uptake kinetics of tauro-nor-THCA-24-DBD in NTCP-transfected CHO cells. Also on record: expressed in transfected cells; host or cells: CHO cells, geneticin selection, expression induced with sodium butyrate. On the procedure:
as §1, with “To culture of NTCP-transfected CHO cells, wild-type and human NTCP-transfected CHO cells were cultured from passage 20 to 45 in T-75 flasks (Greiner-Bio-One, Wemmel, Belgium) as prescribed previously (Treiber et al., 2007). The cells” for “The cells”
as §2, with “minutes. For inhibition experiments, compounds were added at double concentration during preincubation.” for “minutes.”, “compound. The inhibitory potential of all compounds of the Spectrum Collection (n = 2000) and the ChemDiv library (n = 556) were determined at equimolar concentrations with 3 µM tauro-nor-THCA-24-DBD.” for “compound.”

Setting [4] is: 3 µM tauro-nor-THCA-24-DBD, Cheng-Prusoff from IC50, screening hits.
[5] abbreviates: concentration dependent uptake, 15 minutes, NTCP-transfected CHO cells, Michaelis-Menten fit.

With `COC(=O)CC[C@@H](C)[C@H]1CC[C@H]2[C@@H]3CC[C@@H]4C[C@H](O)CC[C@]4(C)[C@H]3C[C@H](O)[C@]12C` [Methyl deoxycholate], at human NTCP [1] (setting [4]), the Ki is 4.84 µM. Besides, the “Uptake of tauro-nor-THCA-24-DBD (% of control)” value (“Uptake … (% of control)” below) on human NTCP [1] is 36.71 % of control.
At human NTCP [2] (setting [4]), Gramicidin registered a Ki of 7.59 µM. The “Uptake … (% of control)” value on human NTCP [2] (compound at equimolar concentration with 3 µM tauro-nor-THCA-24-DBD, triplicate) is reported as 37.54 % of control.
On to Dehydroavocatin-1 -acetate, for which, on human NTCP [1] (setting [4]), the Ki was determined as 118 µM. Also, on human NTCP [1], the “Uptake … (% of control)” value is on record as 44.14 % of control.
Take `CCOc1nc2cccc(C(=O)O)c2n1Cc1ccc(-c2ccccc2-c2nnn[nH]2)cc1` [candesartan]: the Ki on human NTCP [1] (3 µM tauro-nor-THCA-24-DBD, values given with ± spread) stood at 50.9 ± 9.9 µM.
As for `COC(=O)[C@H]1[C@H]2C[C@H]3c4[nH]c5ccccc5c4CCN3C[C@H]2CC[C@@H]1O` [Rauwolscine hydrochloride], the Ki on human NTCP [1] (setting [4]) was determined as 39.3 µM.
In the case of `COc1cc2c(cc1OC)[C@@H]1C(=O)c3ccc4c(c3O[C@@H]1CO2)C[C@H](C(C)C)O4` [Dihydrorotenone], the Ki on human NTCP [1] (setting [4]) worked out at 1.11 µM. Further, the “Uptake … (% of control)” value at human NTCP [1] is given as 37.31 % of control.
On to `CCC(=O)O[C@H]1[C@H](O[C@@H]2[C@@H](C)[C@H](O[C@H]3C[C@@](C)(OC)[C@@H](O)[C@H](C)O3)[C@@H](C)C(=O)O[C@H](CC)[C@@](C)(O)[C@H](O)[C@@H](C)C(=O)[C@H](C)C[C@@]2(C)O)O[C@H](C)C[C@@H]1N(C)C` [Erythromycin estolate], for which the Ki at human NTCP [1] (setting [4]) came to 0.52 µM. For the same compound, at human NTCP [1], the “Uptake … (% of control)” value was 8.49 % of control.
With `COc1cc2c3cc1Oc1cc(ccc1O)C[C@@H]1c4c(cc(OC)c(O)c4Oc4ccc(cc4)C[C@@H]3N(C)CC2)CC[N+]1(C)C.Cl.O.O.O.O.O.[Cl-]` [Tubocurarine chloride], the “Uptake … (% of control)” value on human NTCP [1] is listed as 49.76 % of control.
The same measure, in the same setting: in the case of `CC(C)(O)CC[C@@H](O)[C@](C)(O)[C@H]1CC[C@@]2(O)C3=CC(=O)[C@@H]4C[C@@H](O)[C@@H](O)C[C@]4(C)[C@H]3CC[C@]12C` [Crustecdysone] it was 46.18 % of control.
`COC(=O)C1=C(C)NC(C)=C(C(=O)OCCN(C)Cc2ccccc2)C1c1cccc([N+](=O)[O-])c1` (centres unmarked) [Nicardipine hydrochloride]: the Ki at human NTCP [1] (setting [4]) amounted to 3.53 µM. The “Uptake … (% of control)” value at human NTCP [1] is given as 42.69 % of control.
On to `O=C(O)c1cc(O)c2c(c1)[C@@H]([C@H]1c3cc(C(=O)O)cc(O)c3C(=O)c3c(O[C@@H]4O[C@H](CO)[C@@H](O)[C@H](O)[C@H]4O)cccc31)c1cccc(O[C@@H]3O[C@H](CO)[C@@H](O)[C@H](O)[C@H]3O)c1C2=O` [sennoside B], for which the “concentration-dependent inhibition of tauro-nor-THCA-24-DBD uptake” value at human NTCP [1] (3 µM tauro-nor-THCA-24-DBD, multiple inhibitor concentrations) is recorded as “did not show concentration-dependent inhibition”.
As for `Nc1nc(=O)c2[nH]c(=O)cnc2[nH]1` [Xanthopterin], the “Uptake … (% of control)” value on human NTCP [1] was 49.67 % of control.
Still for that read-out and setting: in the case of `C=CC(C)(O)CCC=C(C)C` (stereo not drawn) [(+)- Linalool] it was 46.35 % of control.
For the compound `COc1ccc(-c2c(OC)c3c(OC)c4c(cc3oc2=O)OC(C)(C)C=C4)cc1` [Robustic acid methyl ether], on human NTCP [1] (setting [4]), the Ki came to 10.6 µM. The “Uptake … (% of control)” value at human NTCP [1] is listed as 21.11 % of control.
As for `CC/C(=C(/CC)c1ccc(O)cc1)c1ccc(O)cc1` [Diethylstilbestrol], the Ki at human NTCP [1] (setting [4]) was determined as 1.57 µM. The “Uptake … (% of control)” value on human NTCP [1] was 48.51 % of control.
Take tauro-nor-THCA-24-DBD: on human NTCP [3] (setting [5]), the Km stood at 9.2 ± 1.8 µM and the Vmax stood at 322.1 ± 18.3 pmol·mg protein^-1·min^-1. Also, on human NTCP [3] (corresponds to Vmax and Km), the uptake clearance is 35.0 µL·mg protein^-1· min^-1.
